The values below come from patent US9598416B2, “Substituted benzothienyl-pyrrolotriazines and uses thereof in the treatment cancer” (Bayer Intellectual Property GmbH, priority 2011, dated 2017).

Each structure is given as a SMILES string. Counter-ions that a name gives are not always drawn. Like-named read-outs stand apart in the source and are kept apart here.

One test addresses human FGFR-3 (Homo sapiens (Human), UniProt P22607). Description: FGFR-3 kinase assay (TR-FRET). It is filed as biochemical. The following applies: 10 μM ATP; compounds of the invention. In general terms: Time-resolved FRET reads energy transfer from a long-lived donor to a nearby acceptor.
The target of another test is human mTOR (Homo sapiens (Human), UniProt P42345). Description: mTOR kinase assay (TR-FRET, for comparative purposes). The class given is biochemical. The following applies: for inhibition at 1 µM: read-out: mTOR % inhibition @ 1 μM. From the text:
mTOR inhibitory activity of the compounds of the present invention was quantified employing the TR-FRET based mTOR assay as described in the following paragraphs: Recombinant fusion tagged mTOR protein [glutathione-S-transferase (GST) fused to human mTOR amino acids from 1360 to 2549], expressed in insect cells and purified by glutathione-sepharose affinity chromatography, was purchased from Invitrogen (Cat.-No. 4753) and used as enzyme. As substrate for the kinase reaction, a recombinant fusion protein of GFP and 4E-BP1 (purchased from Invitrogen, Cat.-No. PV4759) was used. Test compounds were dissolved in DMSO to generate 10 mM stock solutions. […] The resulting mixture was incubated for 1 h at 22° C. to allow formation of the complex between the phosphorylated substrate and the Tb-chelate labelled antibody. Subsequently, the amount of phosphorylated substrate was evaluated by measurement of the resonance energy transfer from the Tb-chelate to the GFP. For this, the fluorescence emissions at 495 nm and 520 nm after excitation at 340 nm was measured in an Envision 2104 multilabel reader (Perkin-Elmer). The ratio of the emissions at 520 nm and at 495 nm was taken as the measure for the amount of phosphorylated substrate.

Where [1] appears, read: 1 μM test compound, mean inhibition values.

Sequence of human FGFR-3 (P22607 397-806): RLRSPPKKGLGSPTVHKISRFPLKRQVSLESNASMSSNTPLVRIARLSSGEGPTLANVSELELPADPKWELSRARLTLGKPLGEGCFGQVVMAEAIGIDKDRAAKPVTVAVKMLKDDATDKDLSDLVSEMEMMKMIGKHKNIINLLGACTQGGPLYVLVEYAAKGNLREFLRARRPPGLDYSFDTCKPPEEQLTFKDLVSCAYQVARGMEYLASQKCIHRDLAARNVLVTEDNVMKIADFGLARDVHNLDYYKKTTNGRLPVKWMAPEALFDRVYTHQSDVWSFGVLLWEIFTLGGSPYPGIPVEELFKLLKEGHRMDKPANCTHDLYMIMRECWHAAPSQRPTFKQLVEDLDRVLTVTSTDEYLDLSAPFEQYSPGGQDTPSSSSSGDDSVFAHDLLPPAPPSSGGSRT
Sequence of human mTOR (P42345 1360-2549): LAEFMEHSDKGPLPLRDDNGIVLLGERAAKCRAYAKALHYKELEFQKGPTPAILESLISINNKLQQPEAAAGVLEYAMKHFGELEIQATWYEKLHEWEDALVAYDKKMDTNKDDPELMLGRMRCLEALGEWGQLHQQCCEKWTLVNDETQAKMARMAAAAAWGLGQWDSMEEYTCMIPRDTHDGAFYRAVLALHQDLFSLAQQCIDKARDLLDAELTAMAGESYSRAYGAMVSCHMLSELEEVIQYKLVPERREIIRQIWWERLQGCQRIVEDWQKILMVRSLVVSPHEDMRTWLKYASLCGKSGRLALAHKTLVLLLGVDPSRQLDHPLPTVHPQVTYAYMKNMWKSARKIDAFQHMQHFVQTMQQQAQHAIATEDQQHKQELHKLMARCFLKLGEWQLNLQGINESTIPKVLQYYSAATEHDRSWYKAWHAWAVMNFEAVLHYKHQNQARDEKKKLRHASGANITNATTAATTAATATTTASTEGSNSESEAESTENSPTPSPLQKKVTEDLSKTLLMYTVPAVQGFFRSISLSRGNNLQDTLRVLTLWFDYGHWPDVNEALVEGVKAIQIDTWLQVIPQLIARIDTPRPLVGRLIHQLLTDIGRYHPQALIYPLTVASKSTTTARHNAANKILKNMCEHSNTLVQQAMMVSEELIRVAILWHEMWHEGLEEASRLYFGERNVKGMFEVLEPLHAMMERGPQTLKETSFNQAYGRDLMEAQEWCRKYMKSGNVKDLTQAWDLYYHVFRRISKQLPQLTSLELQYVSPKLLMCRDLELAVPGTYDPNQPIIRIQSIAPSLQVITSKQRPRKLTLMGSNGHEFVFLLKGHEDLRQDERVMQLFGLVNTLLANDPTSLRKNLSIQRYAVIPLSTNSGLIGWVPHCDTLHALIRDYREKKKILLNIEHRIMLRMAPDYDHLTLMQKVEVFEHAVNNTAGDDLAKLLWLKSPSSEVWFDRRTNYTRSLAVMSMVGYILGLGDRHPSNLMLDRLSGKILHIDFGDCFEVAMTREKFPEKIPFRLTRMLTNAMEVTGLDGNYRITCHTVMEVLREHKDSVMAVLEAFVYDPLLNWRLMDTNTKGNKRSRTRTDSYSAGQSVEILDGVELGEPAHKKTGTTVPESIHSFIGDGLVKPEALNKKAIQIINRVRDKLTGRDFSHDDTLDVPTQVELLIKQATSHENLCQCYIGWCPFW

Usually IC50 stands for the point on the concentration scale where inhibition reaches its midpoint. Broadly, the inhibition is the change of the read-out against control, counted positive when it falls. At human FGFR-3, `COc1cc(C)cc2cc(-c3c(CNC(C)C(N)=O)cn4ncnc(N)c34)sc12` (racemic) [Example 12, rac-N^2-{[4-Amino-5-(7-methoxy-5-methyl-1-benzothiophen-2-yl)pyrrolo[2,1-f][1,2,4]triazin-6-yl]-methyl}alaninamide] had a half-maximal inhibitory concentration (IC50) of 11.6 nM. Besides, on human mTOR (setting [1]), the inhibition at 1 µM turned out to be 7.2%.

Compound `COc1cc(C)cc2cc(-c3c(CN4CCC(O)C4)cn4ncnc(N)c34)sc12` (racemic) [Example 18, rac-1-{[4-Amino-5-(7-methoxy-5-methyl-1-benzothiophen-2-yl)pyrrolo[2,1-f][1,2,4]triazin-6-yl]-methyl}pyrrolidin-3-ol dihydrochloride] came in with a 50% inhibitory concentration (IC50) on human FGFR-3 of 1.3 nM. The “mTOR % inhibition @ 1 μM” value on human mTOR (setting [1]) is reported as “no inhib. effect detect”.

`COc1cc(C)cc2cc(-c3c(CN4CCCC4C(N)=O)cn4ncnc(N)c34)sc12` (racemic) [Example 19, rac-1-{[4-Amino-5-(7-methoxy-5-methyl-1-benzothiophen-2-yl)pyrrolo[2,1-f][1,2,4]triazin-6-yl]-methyl}prolinamide dihydrochloride]: the midpoint of inhibition against human FGFR-3, the IC50, lay at 11.2 nM. The inhibition at 1 µM at human mTOR came to 1.8%.

On to `COc1cc(C)cc2cc(-c3c(CNCC(C)O)cn4ncnc(N)c34)sc12` (racemic) [Example 26, rac-1-({[4-Amino-5-(7-methoxy-5-methyl-1-benzothiophen-2-yl)pyrrolo[2,1-f][1,2,4]triazin-6-yl]-methyl}amino)propan-2-ol dihydrochloride], for which, at human mTOR (setting [1]), the “mTOR % inhibition @ 1 μM” value is given as “no inhib. effect detect”.

Consider `COc1cc(C)cc2cc(-c3c(COCCCO)cn4ncnc(N)c34)sc12` [Example 1, 3-{[4-Amino-5-(7-methoxy-5-methyl-1-benzothiophen-2-yl)pyrrolo[2,1-f][1,2,4]triazin-6-yl]-methoxy}propan-1-ol hydrochloride], for which it took 18.2 nM to reach half-maximal inhibition against human FGFR-3 (IC50). For the same compound, the inhibition at 1 µM on human mTOR worked out at 1.9%.

Take `COc1cc(C)cc2cc(-c3c(COC[C@H](C)O)cn4ncnc(N)c34)sc12` [Example 2, (2S)-1-{[4-Amino-5-(7-methoxy-5-methyl-1-benzothiophen-2-yl)pyrrolo[2,1-f][1,2,4]triazin-6-yl]-methoxy}propan-2-ol]: the half-maximal inhibitory concentration (IC50) against human FGFR-3 came out at 2.2 nM. Besides, at human mTOR (setting [1]), the inhibition at 1 µM is 6.1%.

`COc1cc(C)cc2cc(-c3c(CO[C@@H](C)CO)cn4ncnc(N)c34)sc12` [Example 3, (2S)-2-{[4-Amino-5-(7-methoxy-5-methyl-1-benzothiophen-2-yl)pyrrolo[2,1-f][1,2,4]triazin-6-yl]-methoxy}propan-1-ol] returned a half-maximal inhibitory concentration (IC50) on human FGFR-3 of 4.2 nM. Also, on human mTOR (setting [1]), the inhibition at 1 µM was 2.5%.

With `CCOC(=O)COCc1cn2ncnc(N)c2c1-c1cc2cc(C)cc(OC)c2s1` [Example 4, Ethyl {[4-amino-5-(7-methoxy-5-methyl-1-benzothiophen-2-yl)pyrrolo[2,1-f][1,2,4]triazin-6-yl]-methoxy}acetate], the 50% inhibitory concentration (IC50) at human FGFR-3 was determined as 49.9 nM. On human mTOR (setting [1]), the inhibition at 1 µM is 8.4%.

For `COc1cc(C)cc2cc(-c3c(COCC(=O)O)cn4ncnc(N)c34)sc12` [Example 5, {[4-Amino-5-(7-methoxy-5-methyl-1-benzothiophen-2-yl)pyrrolo[2,1-f][1,2,4]triazin-6-yl]-methoxy}acetic acid], the IC50 on human FGFR-3 worked out at 72.4 nM. At human mTOR (setting [1]), the inhibition at 1 µM stood at 2.7%.

As for `COc1cc(C)cc2cc(-c3c(COCC(N)=O)cn4ncnc(N)c34)sc12` [Example 6, 2-{[4-Amino-5-(7-methoxy-5-methyl-1-benzothiophen-2-yl)pyrrolo[2,1-f][1,2,4]triazin-6-yl]-methoxy}acetamide], at human FGFR-3, half-maximal inhibition (IC50) required 4.4 nM. Also, on human mTOR (setting [1]), the inhibition at 1 µM was found to be 11.3%.

Turning to `COc1cc(C)cc2cc(-c3c(COCCO)cn4ncnc(N)c34)sc12` [Example 7, 2-{[4-Amino-5-(7-methoxy-5-methyl-1-benzothiophen-2-yl)pyrrolo[2,1-f][1,2,4]triazin-6-yl]-methoxy}ethanol hydrochloride], the IC50 against human FGFR-3 was determined as 5.8 nM. For the same compound, the inhibition at 1 µM at human mTOR is 4.7%.

Consider `COc1cc(C)cc2cc(-c3c(CO)cn4ncnc(N)c34)sc12` [Example 32, [4-Amino-5-(7-methoxy-5-methyl-1-benzothiophen-2-yl)pyrrolo[2,1-f][1,2,4]triazin-6-yl]methanol], for which the “mTOR % inhibition @ 1 μM” value at human mTOR (setting [1]) is reported as “no inhib. effect detect”.

`COc1cc(OC)c2sc(-c3c(CN4CCNC(=O)C4)cn4ncnc(N)c34)cc2c1` [Example 33, 4-{[4-Amino-5-(5,7-dimethoxy-1-benzothiophen-2-yl)pyrrolo[2,1-f][1,2,4]triazin-6-yl]methyl}-piperazin-2-one] registered an IC50 against human FGFR-3 of 1.8 nM.

Compound `COc1cc(C)cc2cc(-c3c(COCC#N)cn4ncnc(N)c34)sc12` [Example 40] had an IC50 on human FGFR-3 of 9.1 nM.

`COc1cc(C)cc2cc(-c3c(COCCCC#N)cn4ncnc(N)c34)sc12` [Example 41] returned a half-maximal inhibitory concentration (IC50) against human FGFR-3 of 12.7 nM.

The compound `COc1cc(C)cc2cc(-c3c(COCCN4CCOCC4)cn4ncnc(N)c34)sc12` [Example 42] had an IC50 on human FGFR-3 of 30 nM.

Take `COc1cc(C)cc2cc(-c3c(COCCN4CCCC4)cn4ncnc(N)c34)sc12` [Example 43]: it took 10.7 nM to reach half-maximal inhibition against human FGFR-3 (IC50).

Compound `COc1cc(C)cc2cc(-c3c(COCCN4CCCCC4)cn4ncnc(N)c34)sc12` [Example 44] yielded an IC50 against human FGFR-3 of 9.3 nM.

The compound `COc1cc(C)cc2cc(-c3c(COCCCN(C)C)cn4ncnc(N)c34)sc12` [Example 45] showed a half-maximal inhibitory concentration (IC50) against human FGFR-3 of 24.8 nM.

With `COc1cc(C)cc2cc(-c3c(CN4CCCC4)cn4ncnc(N)c34)sc12` [Example 47], the half-inhibitory concentration (IC50) on human FGFR-3 amounted to 1 nM. Compared with the last compound, the IC50 is about 25-fold lower.

The compound `COc1cc(C)cc2cc(-c3c(CNC4CC4)cn4ncnc(N)c34)sc12` [Example 48] had an IC50 against human FGFR-3 of 3.6 nM.

The compound `COCCN(Cc1cn2ncnc(N)c2c1-c1cc2cc(C)cc(OC)c2s1)C(C)C` [Example 49] came in with an IC50 at human FGFR-3 of 14.2 nM.

`COc1cc(C)cc2cc(-c3c(CN4CCN(C)CC4)cn4ncnc(N)c34)sc12` [Example 50] showed a 50% inhibitory concentration (IC50) at human FGFR-3 of 0.1 nM.

Take `COc1cc(C)cc2cc(-c3c(CN4CCCCC4)cn4ncnc(N)c34)sc12` [Example 51]: on human FGFR-3, the IC50 amounted to 0.7 nM.

Consider `COc1cc(C)cc2cc(-c3c(CN4CCOC(C)(C)C4)cn4ncnc(N)c34)sc12` [Example 52], for which 3.8 nM corresponded to half-maximal inhibition against human FGFR-3 (IC50).

The compound `COc1cc(C)cc2cc(-c3c(CN4CC(OC)C4)cn4ncnc(N)c34)sc12` [Example 53] had an IC50 at human FGFR-3 of 15.1 nM.

In the case of `COc1cc(C)cc2cc(-c3c(CN4CCCOCC4)cn4ncnc(N)c34)sc12` [Example 54], the IC50 against human FGFR-3 amounted to 2.3 nM.

For the compound `COc1cc(C)cc2cc(-c3c(CN4CCNC(=O)C4C)cn4ncnc(N)c34)sc12` (stereo not shown) [Example 55], the half-maximal inhibitory concentration (IC50) on human FGFR-3 worked out at 1.4 nM.

With `COc1cc(C)cc2cc(-c3c(CN4CNC(=O)C4)cn4ncnc(N)c34)sc12` [Example 56], the IC50 on human FGFR-3 was found to be 3.1 nM.

Take `COc1cc(C)cc2cc(-c3c(CN(C)C4CCS(=O)(=O)C4)cn4ncnc(N)c34)sc12` (stereo not shown) [Example 57]: the midpoint of inhibition on human FGFR-3, the IC50, lay at 3 nM.

As to `COc1cc(C)cc2cc(-c3c(CN4CCN(C5CC5)CC4)cn4ncnc(N)c34)sc12` [Example 58], half-maximal inhibition at human FGFR-3 (IC50) was put at 6.2 nM. This IC50 is about 2.1-fold higher than that of the compound before.

Take `COc1cc(C)cc2cc(-c3c(CN(C)CC(C)OC)cn4ncnc(N)c34)sc12` (stereo not shown) [Example 59]: at human FGFR-3, half-maximal inhibition (IC50) required 4 nM.

Take `COc1cc(C)cc2cc(-c3c(CN4CCC(OC)CC4)cn4ncnc(N)c34)sc12` [Example 60]: the IC50 at human FGFR-3 is 12.5 nM. Compared with the last compound, the IC50 is about 3.1-fold higher.

As for `COc1cc(C)cc2cc(-c3c(CN(C)CC(F)(F)F)cn4ncnc(N)c34)sc12` [Example 61], half-maximal inhibition against human FGFR-3 (IC50) was put at 14.6 nM.

As for `COc1cc(C)cc2cc(-c3c(CN4CCCC(OC)C4)cn4ncnc(N)c34)sc12` (stereo not shown) [Example 62], the IC50 against human FGFR-3 is 2.6 nM.

For `COc1cc(C)cc2cc(-c3c(CN4CCC(F)(F)C4)cn4ncnc(N)c34)sc12` [Example 63], on human FGFR-3, the IC50 was determined as 3 nM.

Regarding `COc1cc(C)cc2cc(-c3c(CN4CCC(C(N)=O)CC4)cn4ncnc(N)c34)sc12` [Example 64], the IC50 on human FGFR-3 is 1.1 nM. This IC50 is about 2.7-fold lower than that of the compound before.

At human FGFR-3, `COc1cc(C)cc2cc(-c3c(CN4CC[C@@H](N(C)C)C4)cn4ncnc(N)c34)sc12` [Example 65] came in with an IC50 of 0.6 nM. Compared with the last compound, the IC50 is about 1.8-fold lower.

In turn, `COc1cc(C)cc2cc(-c3c(CN4CC[C@H](N(C)C)C4)cn4ncnc(N)c34)sc12` [Example 66] gave an IC50 at human FGFR-3 of 0.5 nM.

`COc1cc(C)cc2cc(-c3c(CN4CCCC(N(C)C)C4)cn4ncnc(N)c34)sc12` (stereo not shown) [Example 67]: half-maximal inhibition against human FGFR-3 (IC50) required 0.6 nM.

`COc1cc(C)cc2cc(-c3c(CN4CCCN(C)CC4)cn4ncnc(N)c34)sc12` [Example 68] yielded a half-maximal inhibitory concentration (IC50) on human FGFR-3 of 0.8 nM.

In turn, `COc1cc(C)cc2cc(-c3c(CN4CCCC(C(N)=O)C4)cn4ncnc(N)c34)sc12` (stereo not shown) [Example 69] displayed an IC50 against human FGFR-3 of 4.4 nM.

For the compound `COCCN(C)Cc1cn2ncnc(N)c2c1-c1cc2cc(C)cc(OC)c2s1` [Example 70], the IC50 at human FGFR-3 came to 7.4 nM.

Consider `COc1cc(C)cc2cc(-c3c(CNC4CCS(=O)(=O)C4)cn4ncnc(N)c34)sc12` (stereo not shown) [Example 72], for which the half-maximal inhibitory concentration (IC50) on human FGFR-3 was 5.5 nM.

In the case of `COc1cc(C)cc2cc(-c3c(CNC4CCOC4)cn4ncnc(N)c34)sc12` (stereo not shown) [Example 73], on human FGFR-3, 2.3 nM corresponded to half-maximal inhibition (IC50). This IC50 is about 2.4-fold lower than that of the compound before.

Turning to `CCC(C)NCc1cn2ncnc(N)c2c1-c1cc2cc(C)cc(OC)c2s1` (stereo not shown) [Example 74], the IC50 at human FGFR-3 was 5 nM.

On human FGFR-3, `COc1cc(C)cc2cc(-c3c(CN4CCOC(C)C4)cn4ncnc(N)c34)sc12` (stereo not shown) [Example 76] displayed an IC50 of 4.9 nM. The IC50 values of the last two compounds are within 1.5-fold of each other.

`COc1cc(C)cc2cc(-c3c(CN4CCS(=O)(=O)CC4)cn4ncnc(N)c34)sc12` [Example 77]: the half-maximal inhibitory concentration (IC50) on human FGFR-3 was 15.3 nM. This IC50 lies about 3.1-fold higher than the previous one.
